Here are results for one molecule from patent publication US11458144B1, “Methods for using 5-HMF analogs with increased solubility to inhibit or reverse RBC sickling” (King Abdulaziz University, priority 2021, dated 2022).

The target in one data set is T1, HbA (Homo sapiens, UniProt P68871+P69905).
T1 construct: time-dependent P50-shift of HbA in normal blood (20% hematocrit); endogenous in cells; host or cells: red blood cells in normal whole blood of adult donors (hematocrit 20%)
In words: Time-dependent Hb oxygen equilibrium study in normal whole blood. Conditions: 2 mM, 20% hematocrit, at 3 hours. In kind it is cell-based. How it is done: The time-dependent effect of the MMA compounds and positive control 5-HMF on Hb oxygen affinity was studied using normal blood following previous procedure.^[15] Briefly, normal blood samples (hematocrit 20%) were incubated with the compounds at 37° C. for 24 h. Aliquots were taken at various time points and incubated in IL 237 tonometers (Instrumentation Laboratories, Inc. Lexington, Mass.) for 10 minutes at 37° C., and allowed to equilibrate at oxygen tensions 6, 20, and 40 mmHg. The samples were then aspirated into an ABL 700 Automated Blood Gas Analyzer (Radiometer) to determine the pH, partial pressure of CO2 (pCO2), partial pressure of oxygen (pO2), and Hb oxygen saturation values (SO2). The measured values of pO2 (mmHg) and SO2 at each pO2 value were then subjected to a non-linear regression analysis using the program Scientist (Micromath, Salt Lake City, Utah) to estimate P50 as previously reported.^[28]
5-HMF has a short half-life and poor oral bioavailability due to this metabolic instability, which in part prevented its development for chronic use. Nonetheless, this metabolic instability could be advantageous for parenteral formulation for acute use. […] Briefly, blood samples (hematocrit 20%) were incubated with the compounds at 37° C. for 24 h, and aliquots were taken at the various time points and used to determine the PO2 and SO2 using ABL 800 Automated Blood Gas Analyzer (Radiometer), and to estimate P50 as previously reported.^[10]
The study confirmed the trend in the biological potencies observed with SS blood.

For a further data set, the target named is T2, CYP1A2 (Homo sapiens, UniProt P05177).
T2 construct: using pooled human liver microsomes as previously published; from tissue; host or cells: pooled human liver microsomes
T2 sequence (P05177 1-516): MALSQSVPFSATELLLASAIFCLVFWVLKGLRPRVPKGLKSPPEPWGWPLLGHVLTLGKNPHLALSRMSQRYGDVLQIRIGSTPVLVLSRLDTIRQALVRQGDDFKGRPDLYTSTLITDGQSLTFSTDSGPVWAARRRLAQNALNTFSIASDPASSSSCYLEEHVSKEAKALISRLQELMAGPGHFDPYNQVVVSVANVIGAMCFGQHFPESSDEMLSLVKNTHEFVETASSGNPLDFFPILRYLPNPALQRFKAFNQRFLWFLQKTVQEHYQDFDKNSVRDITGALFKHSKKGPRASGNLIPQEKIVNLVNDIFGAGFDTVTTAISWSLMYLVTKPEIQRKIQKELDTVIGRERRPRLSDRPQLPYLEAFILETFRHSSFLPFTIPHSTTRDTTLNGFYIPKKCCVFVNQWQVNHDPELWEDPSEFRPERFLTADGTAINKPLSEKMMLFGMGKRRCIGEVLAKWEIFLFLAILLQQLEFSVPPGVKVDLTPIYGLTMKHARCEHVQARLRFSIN
As to the kind of experiment: In vitro CYP inhibition, pooled human liver microsomes. In kind it is in vitro ADME. Conditions: substrate Tacrine. On the procedure: (§1) The probe substrates include tacrine (CYP1A2), amodiaquine (CYP2C8), tolbutamide (CYP2C9), mephenytoin (CYP2C19), dextromethorphan (CYP2D6), midazolam (CYP3A4), testosterone (CYP3A4), and bupropion (CYP2B6). […] The assays were performed in duplicate in 96-well plates at 37° C. for 10-60 minutes. The reaction was terminated with addition of methanol, followed by incubation at 4° C. for 10 min and centrifuged at 4° C. for 10 min.
(Liver microsomes are a subcellular fraction often used to study metabolism.)

A further data set deals with T3, CYP2C8 (Homo sapiens, UniProt P10632).
T3 construct: using pooled human liver microsomes as previously published; from tissue; host or cells: pooled human liver microsomes
T3 sequence (P10632 1-490): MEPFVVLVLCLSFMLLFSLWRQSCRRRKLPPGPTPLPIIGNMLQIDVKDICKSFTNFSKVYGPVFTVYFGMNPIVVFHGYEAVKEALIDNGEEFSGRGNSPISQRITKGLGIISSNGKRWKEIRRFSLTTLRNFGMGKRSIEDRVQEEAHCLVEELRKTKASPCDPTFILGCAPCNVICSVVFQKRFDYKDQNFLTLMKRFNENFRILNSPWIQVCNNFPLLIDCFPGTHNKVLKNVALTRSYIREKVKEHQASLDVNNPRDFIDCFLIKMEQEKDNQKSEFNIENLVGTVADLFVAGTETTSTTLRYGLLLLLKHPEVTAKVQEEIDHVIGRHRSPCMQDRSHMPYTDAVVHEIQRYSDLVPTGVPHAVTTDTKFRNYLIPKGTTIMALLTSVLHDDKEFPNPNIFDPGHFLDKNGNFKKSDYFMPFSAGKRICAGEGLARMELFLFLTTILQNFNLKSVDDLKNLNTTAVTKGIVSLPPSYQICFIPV
The data set is described as above. In kind it is in vitro ADME. Conditions: substrate Amodiaquine. How it is done:
as §1

The next data set addresses T4, CYP2B6 (Homo sapiens, UniProt P20813).
T4 sequence (P20813 1-491): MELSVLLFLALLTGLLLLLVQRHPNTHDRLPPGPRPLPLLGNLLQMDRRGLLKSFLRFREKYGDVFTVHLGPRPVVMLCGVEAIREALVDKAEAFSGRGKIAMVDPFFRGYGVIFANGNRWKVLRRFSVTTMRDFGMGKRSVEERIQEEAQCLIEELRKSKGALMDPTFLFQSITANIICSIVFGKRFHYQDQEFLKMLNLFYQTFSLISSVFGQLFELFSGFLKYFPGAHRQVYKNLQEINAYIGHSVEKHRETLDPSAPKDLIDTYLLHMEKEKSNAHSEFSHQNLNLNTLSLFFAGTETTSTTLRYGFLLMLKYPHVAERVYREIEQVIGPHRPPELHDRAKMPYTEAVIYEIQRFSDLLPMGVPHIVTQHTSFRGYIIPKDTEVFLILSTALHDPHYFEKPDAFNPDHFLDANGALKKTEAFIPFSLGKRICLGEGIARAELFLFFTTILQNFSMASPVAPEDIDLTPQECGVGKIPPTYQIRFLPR
The data set is described as above. On the procedure:
as §1

A further data set has as its target CYP2C19 (Homo sapiens, UniProt P33261). The data set is described as above. How it is done: as §1
In the next data set the target is CYP2C9 (Homo sapiens, UniProt P11712). The data set is described as above. On the procedure:
as §1

Another data set addresses CYP2D6 (Homo sapiens, UniProt P10635). The description is as above. How it is done: as §1
For a further data set, the target named is CYP3A4 (Homo sapiens, UniProt P08684). The data set is described as above. How it is done: as §1
Chain of CYP3A4 (P08684 whole entry): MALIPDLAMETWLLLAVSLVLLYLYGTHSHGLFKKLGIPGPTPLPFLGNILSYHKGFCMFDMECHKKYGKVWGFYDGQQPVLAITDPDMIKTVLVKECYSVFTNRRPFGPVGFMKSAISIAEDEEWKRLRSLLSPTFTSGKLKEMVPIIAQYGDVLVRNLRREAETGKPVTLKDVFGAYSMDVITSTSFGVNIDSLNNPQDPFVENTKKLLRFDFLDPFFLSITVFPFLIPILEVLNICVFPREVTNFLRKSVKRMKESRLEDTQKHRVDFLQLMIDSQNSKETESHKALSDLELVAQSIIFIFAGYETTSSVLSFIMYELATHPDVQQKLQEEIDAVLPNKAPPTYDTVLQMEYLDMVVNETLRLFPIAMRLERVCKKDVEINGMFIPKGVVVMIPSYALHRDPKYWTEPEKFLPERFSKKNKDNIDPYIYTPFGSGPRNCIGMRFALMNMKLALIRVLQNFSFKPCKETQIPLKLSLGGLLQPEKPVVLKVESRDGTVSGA
In data set [1] the test system is human cytochrome P450 (CYP) enzymes. In words: In vitro CYP inhibition, panel of seven enzymes (overall statement). In kind it is in vitro ADME. Conditions: 0.1 to 100 μM; pooled human liver microsomes. On the procedure: as §1

The structures appear in SMILES notation. Where two headings read alike, the source gives them in different places.

Chain of CYP2C9 (P11712 whole entry): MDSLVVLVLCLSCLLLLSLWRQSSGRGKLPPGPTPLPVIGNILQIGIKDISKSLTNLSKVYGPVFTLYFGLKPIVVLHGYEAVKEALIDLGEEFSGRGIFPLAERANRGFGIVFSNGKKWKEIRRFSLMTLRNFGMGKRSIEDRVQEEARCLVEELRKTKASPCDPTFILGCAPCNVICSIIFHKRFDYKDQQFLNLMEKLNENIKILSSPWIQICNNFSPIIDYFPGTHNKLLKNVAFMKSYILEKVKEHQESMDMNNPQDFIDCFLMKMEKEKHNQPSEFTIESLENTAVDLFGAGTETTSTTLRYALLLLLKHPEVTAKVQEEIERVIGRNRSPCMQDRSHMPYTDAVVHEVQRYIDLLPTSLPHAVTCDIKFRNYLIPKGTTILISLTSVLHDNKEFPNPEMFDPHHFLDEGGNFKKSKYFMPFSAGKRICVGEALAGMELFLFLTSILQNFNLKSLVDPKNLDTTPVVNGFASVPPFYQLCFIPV
Chain of CYP2D6 (P10635 whole entry): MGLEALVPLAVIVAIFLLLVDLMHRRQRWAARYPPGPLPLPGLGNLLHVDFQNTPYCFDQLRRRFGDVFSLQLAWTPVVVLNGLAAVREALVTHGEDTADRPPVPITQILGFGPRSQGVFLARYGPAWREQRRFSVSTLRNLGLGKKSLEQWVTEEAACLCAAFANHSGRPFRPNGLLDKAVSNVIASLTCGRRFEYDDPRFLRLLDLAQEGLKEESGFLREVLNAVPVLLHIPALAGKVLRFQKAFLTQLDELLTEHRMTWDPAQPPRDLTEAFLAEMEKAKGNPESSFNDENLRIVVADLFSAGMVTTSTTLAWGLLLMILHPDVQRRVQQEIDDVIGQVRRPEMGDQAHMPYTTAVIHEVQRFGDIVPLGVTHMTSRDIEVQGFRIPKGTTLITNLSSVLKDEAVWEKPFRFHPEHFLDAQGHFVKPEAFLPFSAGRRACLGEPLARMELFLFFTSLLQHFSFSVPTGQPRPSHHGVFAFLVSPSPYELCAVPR
T1 sequence (P69905 2-142 limits assumed): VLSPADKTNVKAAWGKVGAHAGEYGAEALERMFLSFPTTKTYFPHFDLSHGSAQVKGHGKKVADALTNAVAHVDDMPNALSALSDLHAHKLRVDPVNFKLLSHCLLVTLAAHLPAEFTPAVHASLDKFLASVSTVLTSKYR
T1 sequence (P68871 2-147 limits assumed): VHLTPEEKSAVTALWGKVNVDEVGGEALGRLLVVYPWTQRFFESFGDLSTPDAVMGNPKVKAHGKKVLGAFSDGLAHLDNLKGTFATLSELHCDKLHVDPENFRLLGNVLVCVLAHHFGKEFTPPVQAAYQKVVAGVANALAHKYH
Chain of CYP2C19 (P33261 whole entry): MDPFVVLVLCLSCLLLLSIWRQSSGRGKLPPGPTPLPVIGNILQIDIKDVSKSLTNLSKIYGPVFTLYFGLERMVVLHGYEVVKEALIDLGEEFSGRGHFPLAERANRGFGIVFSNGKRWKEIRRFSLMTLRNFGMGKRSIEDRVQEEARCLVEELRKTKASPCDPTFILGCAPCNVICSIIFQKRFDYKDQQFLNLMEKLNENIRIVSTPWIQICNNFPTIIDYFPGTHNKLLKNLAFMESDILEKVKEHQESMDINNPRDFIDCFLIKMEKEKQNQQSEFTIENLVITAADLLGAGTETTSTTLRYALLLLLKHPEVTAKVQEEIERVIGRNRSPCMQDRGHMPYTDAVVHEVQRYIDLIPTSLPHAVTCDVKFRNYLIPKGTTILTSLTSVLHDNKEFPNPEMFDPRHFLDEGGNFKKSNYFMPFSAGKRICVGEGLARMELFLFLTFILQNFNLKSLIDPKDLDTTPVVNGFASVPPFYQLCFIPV

Regarding `O=Cc1ccc(CO)o1` [Compound 5-HMF, 5-hydroxymethylfurfural, reference compound], at HbA, the “%P50 shift” value came out at 35%. In addition, the IC50 at CYP1A2, on CYP2C8, against CYP2B6, against CYP2C19, against CYP2C9 and against CYP2D6 was above 100 µM in each case. In addition, the half-inhibitory concentration (IC50) (usually the concentration that inhibits the measured activity by half) was above 100 µM against CYP3A4 and above 100 µM against CYP3A4 (human, microsomes, pH 7.4). In data set [1], the “inhibition of liver CYP isozymes” value is listed as “no inhibition”.
